These results are taken from patent publication US20110053916A1 (Vertex Pharmaceuticals Incorporated, priority 2009, published 2011).

As usually defined, the Ki is a measure of affinity in units of concentration, obtained from inhibition or displacement.

For the experiment, the target named is T1, PknB (Mycobacterium tuberculosis, UniProt P9WI81).
T1 construct: made in house
The experiment is described as follows: biochemical. The settings on record: 3 nM PknB, 6 uM GarA, 3 μM ATP, 30 min, competitive tight-binding fit, several symbols in a cell = repeat determinations; for Ki: read-out: Ki Values. Details: species or system M. tuberculosis.

T1 sequence (P9WI81 whole entry): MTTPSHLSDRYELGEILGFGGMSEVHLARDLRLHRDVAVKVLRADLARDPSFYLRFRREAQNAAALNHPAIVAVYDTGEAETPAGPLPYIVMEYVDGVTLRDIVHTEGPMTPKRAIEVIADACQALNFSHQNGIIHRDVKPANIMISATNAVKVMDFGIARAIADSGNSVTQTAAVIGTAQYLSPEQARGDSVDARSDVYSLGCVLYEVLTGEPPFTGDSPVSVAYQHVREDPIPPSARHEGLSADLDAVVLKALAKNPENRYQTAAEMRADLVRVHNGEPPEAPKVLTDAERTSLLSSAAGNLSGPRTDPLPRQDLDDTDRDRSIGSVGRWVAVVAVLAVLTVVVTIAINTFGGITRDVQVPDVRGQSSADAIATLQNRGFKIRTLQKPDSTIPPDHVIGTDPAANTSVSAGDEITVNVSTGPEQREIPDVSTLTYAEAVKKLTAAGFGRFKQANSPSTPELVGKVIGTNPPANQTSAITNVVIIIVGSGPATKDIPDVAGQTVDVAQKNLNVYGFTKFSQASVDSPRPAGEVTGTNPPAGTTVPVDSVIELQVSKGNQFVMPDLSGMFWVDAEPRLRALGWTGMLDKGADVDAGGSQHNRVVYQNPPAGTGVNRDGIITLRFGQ

`C#Cc1cnc(-c2ccc(C(=C)C)s2)nc1Nc1cc(C2CC2)n[nH]1` [Compound 119, N-(5-cyclopropyl-2H-pyrazol-3-yl)-5-ethynyl-2-(5-isopropenyl-2-thienyl)-pyrimidin-4-amine]: the Ki lay in the range of 10 to 50 nM.

For the molecule `NS(=O)(=O)c1ccccc1Nc1nccc(Nc2cc(C3CC3)[nH]n2)n1` [Compound 120, 2-[[4-[(5-cyclopropyl-1H-pyrazol-3-yl)amino]pyrimidin-2-yl]amino]benzenesulfonamide], the Ki fell in the range of 100 to 500 nM.

As for `NS(=O)(=O)c1ccc(-c2ncc(Cl)c(Nc3cc(C4CC4)[nH]n3)n2)cc1` [Compound 121, 4-[5-chloro-4-[(5-cyclopropyl-1H-pyrazol-3-yl)amino]-pyrimidin-2-yl]benzenesulfonamide], the Ki is 10 to 50 nM.

As for `C#Cc1cnc(-c2cccc(S(=O)(=O)NCCO)c2)nc1Nc1cc(C2CC2)[nH]n1` [Compound 122, 3-(4-(3-Cyclopropyl-1H-pyrazol-5-ylamino)-5-ethynylpyrimidin-2-yl)-N-(2-hydroxyethyl)benzene sulfonamide], the Ki is 10 to 50 nM.

Take `NC(=O)c1cccc(Nc2nccc(Nc3cc(C4CC4)[nH]n3)n2)c1` [Compound 125, 3-[[4-[(5-cyclopropyl-1H-pyrazol-3-yl)amino]pyrimidin-2-yl]amino]benzamide]: the inhibition constant Ki lay in the range of 500 to 1000 nM.

Take `CNS(=O)(=O)c1cccc(-c2ncc(Cl)c(Nc3cc(C4CC4)[nH]n3)n2)c1` [Compound 127, 3-[5-chloro-4-[(5-cyclopropyl-1H-pyrazol-3-yl)amino]-pyrimidin-2-yl]-N-methyl-benzenesulfonamide]: the Ki lay in the range of 10 to 50 nM.

On to `C#Cc1cnc(-c2ccc(CC#N)s2)nc1Nc1cc(C2CC2)n[nH]1` [Compound 130, 2-(5-(4-(3-Cyclopropyl-1H-pyrazol-5-ylamino)-5-ethynylpyrimidin-2-yl)thiophen-2-yl)acetonitrile], for which the Ki lay in the range of 1 to 10 nM.

`C[C@H](O)c1ccc(-c2ncc(Cl)c(Nc3cc(C4CC4)[nH]n3)n2)s1` [Compound 132, (S)-1-(5-(4-(5-cyclopropyl-1H-pyrazol-3-ylamino)-5-chloropyrimidin-2-yl)thiophen-2-yl)ethanol]: the “Ki Values” is listed as “A**, A*”.

Take `CN(CCO)S(=O)(=O)c1cccc(-c2ncc(Cl)c(Nc3cc(C4CC4)[nH]n3)n2)c1` [Compound 134, 3-[5-chloro-4-[(5-cyclopropyl-1H-pyrazol-3-yl)amino]-pyrimidin-2-yl]-N-(2-hydroxyethyl)-N-methyl-benzenesulfonamide]: the Ki fell in the range of 10 to 50 nM.

Turning to `O=S(=O)(c1ccc(-c2ncc(Cl)c(Nc3cc(C4CC4)[nH]n3)n2)s1)N1CCNCC1` [Compound 135, 5-chloro-N-(5-cyclopropyl-1H-pyrazol-3-yl)-2-(5-piperazin-1-ylsulfonyl-2-thienyl)-pyrimidin-4-amine], the inhibitory constant (Ki) was 10 to 50 nM.

As to `CC(=O)c1ccc(-c2ncc(F)c(Nc3cc(C4CC4)[nH]n3)n2)s1` [Compound 137, 1-(5-(4-(5-cyclopropyl-1H-pyrazol-3-ylamino)-5-fluoropyrimidin-2-yl)thiophen-2-yl)ethanone], the Ki was in the range of 10 to 50 nM.

Take `N#Cc1ccc(-c2ncc(Cl)c(Nc3cc(C4CC4)[nH]n3)n2)s1` [Compound 140, 5-(5-chloro-4-(5-cyclopropyl-1H-pyrazol-3-ylamino)pyrimidin-2-yl)thiophene-2-carbonitrile]: the Ki lay within 10 to 50 nM.

For `O=C(O)c1cccc(-c2ncc(Cl)c(Nc3cc(C4CC4)[nH]n3)n2)c1` [Compound 142, 3-[5-chloro-4-[(5-cyclopropyl-1H-pyrazol-3-yl)amino]-pyrimidin-2-yl]benzoic acid], the “Ki Values” is listed as “A*, A, B**, B**”.

`N#CCc1ccc(-c2ncc(Cl)c(Nc3cc(C4CC4)n[nH]3)n2)s1` [Compound 143, 2-(5-(5-chloro-4-(3-cyclopropyl-1H-pyrazol-5-ylamino)pyrimidin-2-yl)thiophen-2-yl)acetonitrile]: the Ki was 1 to 10 nM.
